ChEMBL document CHEMBL5291721, “A preclinical secondary pharmacology resource illuminates target-adverse drug reaction associations of marketed drugs” (Nat Commun, 2023)

How the values were obtained:
[1] = target: Beta-2 adrenergic receptor (Homo sapiens, UniProt P07550); format: functional, cell-based
[2] = target: T1, Type-1 angiotensin II receptor (Homo sapiens, UniProt P30556)
T1 sequence (P30556 whole entry): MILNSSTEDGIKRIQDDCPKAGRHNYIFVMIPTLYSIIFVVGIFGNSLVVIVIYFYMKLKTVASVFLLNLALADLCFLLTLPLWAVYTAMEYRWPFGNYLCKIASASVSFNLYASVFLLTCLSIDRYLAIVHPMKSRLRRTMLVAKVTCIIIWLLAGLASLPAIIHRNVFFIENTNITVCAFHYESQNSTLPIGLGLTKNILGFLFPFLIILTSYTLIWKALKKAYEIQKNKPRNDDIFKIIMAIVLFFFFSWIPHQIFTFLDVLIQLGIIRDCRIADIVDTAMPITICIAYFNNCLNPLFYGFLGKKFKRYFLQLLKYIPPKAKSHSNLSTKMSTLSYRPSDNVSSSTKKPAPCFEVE

B2 bradykinin receptor = target: T2, B2 bradykinin receptor (Homo sapiens, UniProt P30411)
T2 sequence (P30411 whole entry): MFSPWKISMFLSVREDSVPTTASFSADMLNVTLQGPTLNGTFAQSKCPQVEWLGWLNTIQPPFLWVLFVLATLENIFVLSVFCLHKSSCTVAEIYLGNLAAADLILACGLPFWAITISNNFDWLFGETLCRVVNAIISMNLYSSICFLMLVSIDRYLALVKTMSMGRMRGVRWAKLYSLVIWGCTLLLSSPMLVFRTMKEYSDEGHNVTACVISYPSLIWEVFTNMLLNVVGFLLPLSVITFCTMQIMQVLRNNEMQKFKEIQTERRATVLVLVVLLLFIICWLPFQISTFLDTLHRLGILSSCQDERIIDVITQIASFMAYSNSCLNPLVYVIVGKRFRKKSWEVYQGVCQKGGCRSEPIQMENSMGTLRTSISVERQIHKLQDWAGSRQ

Cannabinoid receptor 1 = Cannabinoid receptor 1 (Homo sapiens, UniProt P21554)
Chain of Cannabinoid receptor 1 (P21554 whole entry): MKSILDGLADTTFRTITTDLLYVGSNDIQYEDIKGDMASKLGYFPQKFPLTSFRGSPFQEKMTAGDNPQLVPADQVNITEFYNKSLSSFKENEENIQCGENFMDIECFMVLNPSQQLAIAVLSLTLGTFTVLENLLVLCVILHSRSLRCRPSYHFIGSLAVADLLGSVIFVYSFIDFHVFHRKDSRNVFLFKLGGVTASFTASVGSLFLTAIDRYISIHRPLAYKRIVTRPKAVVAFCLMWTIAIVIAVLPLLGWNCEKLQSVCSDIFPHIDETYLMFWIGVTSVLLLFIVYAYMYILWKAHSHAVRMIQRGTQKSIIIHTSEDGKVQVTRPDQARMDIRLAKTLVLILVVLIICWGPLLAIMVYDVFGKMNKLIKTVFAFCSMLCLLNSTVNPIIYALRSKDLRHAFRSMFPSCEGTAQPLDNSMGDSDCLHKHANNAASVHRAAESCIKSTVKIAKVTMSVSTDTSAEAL

Glucocorticoid receptor = target: T3, Glucocorticoid receptor (Homo sapiens, UniProt P04150)
T3 sequence (P04150 whole entry): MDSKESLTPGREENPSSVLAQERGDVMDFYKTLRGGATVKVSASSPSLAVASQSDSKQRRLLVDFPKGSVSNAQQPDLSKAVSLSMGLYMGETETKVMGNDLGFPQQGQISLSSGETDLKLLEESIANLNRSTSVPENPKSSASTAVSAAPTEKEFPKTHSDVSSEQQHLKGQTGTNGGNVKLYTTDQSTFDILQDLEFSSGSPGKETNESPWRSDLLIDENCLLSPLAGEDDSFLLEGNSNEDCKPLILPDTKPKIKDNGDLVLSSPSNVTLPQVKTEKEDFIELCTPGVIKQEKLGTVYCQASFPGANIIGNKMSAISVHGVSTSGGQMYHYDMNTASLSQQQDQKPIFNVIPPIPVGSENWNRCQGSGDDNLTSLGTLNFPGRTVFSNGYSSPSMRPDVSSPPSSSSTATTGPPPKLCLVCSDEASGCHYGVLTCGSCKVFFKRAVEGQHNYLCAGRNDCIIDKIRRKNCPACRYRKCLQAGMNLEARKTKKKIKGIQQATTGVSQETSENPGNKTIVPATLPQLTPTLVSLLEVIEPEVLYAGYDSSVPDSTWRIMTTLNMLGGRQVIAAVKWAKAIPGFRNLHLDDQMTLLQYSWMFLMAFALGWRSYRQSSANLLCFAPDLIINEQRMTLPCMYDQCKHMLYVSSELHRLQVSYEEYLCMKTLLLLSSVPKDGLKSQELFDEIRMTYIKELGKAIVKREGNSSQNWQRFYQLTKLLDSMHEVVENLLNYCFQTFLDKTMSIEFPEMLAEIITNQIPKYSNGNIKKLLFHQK

[3] = target: 3',5'-cyclic-AMP phosphodiesterase 4D (Homo sapiens, UniProt Q08499); format: functional
Chain of 3',5'-cyclic-AMP phosphodiesterase 4D (Q08499 whole entry): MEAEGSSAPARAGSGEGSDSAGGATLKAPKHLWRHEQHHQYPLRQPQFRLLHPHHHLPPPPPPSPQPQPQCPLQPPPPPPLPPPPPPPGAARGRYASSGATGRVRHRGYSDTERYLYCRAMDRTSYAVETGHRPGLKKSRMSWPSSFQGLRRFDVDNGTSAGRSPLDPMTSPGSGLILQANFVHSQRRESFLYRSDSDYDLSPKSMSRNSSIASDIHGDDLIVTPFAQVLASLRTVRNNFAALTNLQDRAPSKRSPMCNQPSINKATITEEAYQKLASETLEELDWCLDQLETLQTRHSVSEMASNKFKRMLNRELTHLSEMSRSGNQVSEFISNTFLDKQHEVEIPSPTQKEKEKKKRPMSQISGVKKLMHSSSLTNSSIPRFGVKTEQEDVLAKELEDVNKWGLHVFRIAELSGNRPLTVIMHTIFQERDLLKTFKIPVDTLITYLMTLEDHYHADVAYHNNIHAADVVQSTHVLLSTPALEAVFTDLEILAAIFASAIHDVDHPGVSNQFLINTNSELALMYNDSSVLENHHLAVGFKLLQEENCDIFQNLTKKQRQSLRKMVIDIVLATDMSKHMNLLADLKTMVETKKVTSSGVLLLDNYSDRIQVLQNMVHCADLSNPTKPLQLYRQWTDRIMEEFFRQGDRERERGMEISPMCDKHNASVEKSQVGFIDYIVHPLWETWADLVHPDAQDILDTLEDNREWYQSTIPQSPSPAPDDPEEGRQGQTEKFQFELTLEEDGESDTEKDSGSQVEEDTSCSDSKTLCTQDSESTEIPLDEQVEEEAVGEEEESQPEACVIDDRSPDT

[4] = target: Sodium-dependent dopamine transporter (Homo sapiens, UniProt Q01959)
Chain of Sodium-dependent dopamine transporter (Q01959 whole entry): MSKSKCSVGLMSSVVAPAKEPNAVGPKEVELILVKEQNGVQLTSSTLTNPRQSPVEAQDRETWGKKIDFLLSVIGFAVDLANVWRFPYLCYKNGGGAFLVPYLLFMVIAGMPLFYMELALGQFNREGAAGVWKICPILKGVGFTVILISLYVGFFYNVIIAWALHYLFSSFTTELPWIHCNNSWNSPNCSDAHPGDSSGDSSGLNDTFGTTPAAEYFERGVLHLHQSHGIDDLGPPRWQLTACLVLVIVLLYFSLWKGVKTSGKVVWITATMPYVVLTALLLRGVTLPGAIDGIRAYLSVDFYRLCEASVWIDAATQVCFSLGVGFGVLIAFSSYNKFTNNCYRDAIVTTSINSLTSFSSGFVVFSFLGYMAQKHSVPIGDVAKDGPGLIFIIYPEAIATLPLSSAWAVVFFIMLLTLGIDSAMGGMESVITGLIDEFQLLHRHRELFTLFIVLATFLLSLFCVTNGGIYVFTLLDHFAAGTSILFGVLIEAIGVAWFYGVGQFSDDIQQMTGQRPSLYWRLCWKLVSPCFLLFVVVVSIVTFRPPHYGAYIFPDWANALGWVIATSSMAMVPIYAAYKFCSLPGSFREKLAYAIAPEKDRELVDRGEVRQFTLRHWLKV

Mu-type opioid receptor [5] = target: T4, Mu-type opioid receptor (Homo sapiens, UniProt P35372)
T4 sequence (P35372 whole entry): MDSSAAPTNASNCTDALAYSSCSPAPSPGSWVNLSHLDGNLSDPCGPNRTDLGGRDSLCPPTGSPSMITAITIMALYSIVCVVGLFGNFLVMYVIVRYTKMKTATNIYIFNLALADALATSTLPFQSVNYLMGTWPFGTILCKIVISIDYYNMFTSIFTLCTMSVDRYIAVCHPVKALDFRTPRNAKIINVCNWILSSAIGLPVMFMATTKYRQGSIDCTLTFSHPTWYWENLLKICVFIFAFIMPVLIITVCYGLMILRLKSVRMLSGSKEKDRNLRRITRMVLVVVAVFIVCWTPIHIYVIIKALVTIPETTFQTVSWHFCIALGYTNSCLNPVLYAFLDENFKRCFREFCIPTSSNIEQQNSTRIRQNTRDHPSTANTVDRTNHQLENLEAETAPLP

[6] = target: T5, Amine oxidase [flavin-containing] A (Homo sapiens, UniProt P21397); format: functional
T5 sequence (P21397 whole entry): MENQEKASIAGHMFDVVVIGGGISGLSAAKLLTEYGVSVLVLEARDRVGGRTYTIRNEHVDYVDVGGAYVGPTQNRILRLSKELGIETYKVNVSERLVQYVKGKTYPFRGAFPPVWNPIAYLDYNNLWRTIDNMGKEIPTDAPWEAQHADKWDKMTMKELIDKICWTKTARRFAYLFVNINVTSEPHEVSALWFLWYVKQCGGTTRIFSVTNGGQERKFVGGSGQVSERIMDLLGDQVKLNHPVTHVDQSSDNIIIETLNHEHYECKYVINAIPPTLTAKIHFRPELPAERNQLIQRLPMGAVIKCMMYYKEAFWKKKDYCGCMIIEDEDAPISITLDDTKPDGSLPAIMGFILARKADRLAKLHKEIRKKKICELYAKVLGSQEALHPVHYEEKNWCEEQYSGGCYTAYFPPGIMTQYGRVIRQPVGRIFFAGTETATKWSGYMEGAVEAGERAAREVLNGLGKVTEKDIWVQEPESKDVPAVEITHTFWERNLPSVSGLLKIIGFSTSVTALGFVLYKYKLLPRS

[7] = target: Muscarinic acetylcholine receptor M3 (Homo sapiens, UniProt P20309)
Chain of Muscarinic acetylcholine receptor M3 (P20309 whole entry): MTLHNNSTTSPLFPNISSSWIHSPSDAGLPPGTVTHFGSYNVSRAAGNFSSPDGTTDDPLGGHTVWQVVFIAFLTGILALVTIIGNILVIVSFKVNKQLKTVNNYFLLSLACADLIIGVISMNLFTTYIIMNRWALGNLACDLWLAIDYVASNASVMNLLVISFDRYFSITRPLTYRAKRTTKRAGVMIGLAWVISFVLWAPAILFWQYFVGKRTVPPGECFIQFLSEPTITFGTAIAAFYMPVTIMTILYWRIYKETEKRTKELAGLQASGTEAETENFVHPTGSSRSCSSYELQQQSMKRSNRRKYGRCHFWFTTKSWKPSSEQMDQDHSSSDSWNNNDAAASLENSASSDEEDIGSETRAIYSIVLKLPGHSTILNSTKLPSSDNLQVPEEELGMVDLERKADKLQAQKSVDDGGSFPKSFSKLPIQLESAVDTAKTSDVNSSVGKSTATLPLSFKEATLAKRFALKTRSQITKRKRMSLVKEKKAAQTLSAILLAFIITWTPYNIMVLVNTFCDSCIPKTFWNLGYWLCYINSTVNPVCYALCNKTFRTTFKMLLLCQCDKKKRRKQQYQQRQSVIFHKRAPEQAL

Histamine H1 receptor = Histamine H1 receptor (Homo sapiens, UniProt P35367)
Chain of Histamine H1 receptor (P35367 whole entry): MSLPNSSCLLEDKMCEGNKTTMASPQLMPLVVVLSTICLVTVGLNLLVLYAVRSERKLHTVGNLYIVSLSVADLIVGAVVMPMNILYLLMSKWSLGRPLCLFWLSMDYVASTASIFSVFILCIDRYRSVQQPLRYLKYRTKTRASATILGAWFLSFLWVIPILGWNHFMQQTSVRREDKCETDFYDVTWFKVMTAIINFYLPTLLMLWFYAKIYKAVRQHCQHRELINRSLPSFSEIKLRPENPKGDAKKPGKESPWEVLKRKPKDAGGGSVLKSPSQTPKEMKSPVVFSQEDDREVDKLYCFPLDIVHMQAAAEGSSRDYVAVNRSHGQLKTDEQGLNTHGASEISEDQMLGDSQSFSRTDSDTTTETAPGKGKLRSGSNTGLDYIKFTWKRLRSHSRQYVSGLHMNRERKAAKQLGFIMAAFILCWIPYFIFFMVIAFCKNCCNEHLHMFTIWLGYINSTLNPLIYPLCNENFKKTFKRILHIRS

[8] = target: T6, 5-hydroxytryptamine receptor 2A (Homo sapiens, UniProt P28223); format: functional, cell-based
T6 sequence (P28223 whole entry): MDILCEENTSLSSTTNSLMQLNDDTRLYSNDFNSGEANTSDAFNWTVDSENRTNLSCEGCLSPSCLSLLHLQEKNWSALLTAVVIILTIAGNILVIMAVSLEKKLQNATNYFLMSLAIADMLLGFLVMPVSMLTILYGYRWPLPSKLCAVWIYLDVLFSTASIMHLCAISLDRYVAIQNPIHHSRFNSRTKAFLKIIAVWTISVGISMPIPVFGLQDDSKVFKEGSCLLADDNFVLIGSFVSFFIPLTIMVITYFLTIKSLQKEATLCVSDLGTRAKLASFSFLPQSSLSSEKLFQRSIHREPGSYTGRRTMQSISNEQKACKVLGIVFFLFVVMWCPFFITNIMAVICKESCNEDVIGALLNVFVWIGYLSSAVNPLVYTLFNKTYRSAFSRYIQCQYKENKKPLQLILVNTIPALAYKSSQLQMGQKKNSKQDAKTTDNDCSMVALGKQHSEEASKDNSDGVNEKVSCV

[9] = target: T6, 5-hydroxytryptamine receptor 2A; format: functional, cell-based; remark: listed apart in the source
Mu-type opioid receptor [10] = target: T4, Mu-type opioid receptor; assay: biochemical; format: functional
Also: assay procedure not described here.

Chain of Beta-2 adrenergic receptor (P07550 whole entry): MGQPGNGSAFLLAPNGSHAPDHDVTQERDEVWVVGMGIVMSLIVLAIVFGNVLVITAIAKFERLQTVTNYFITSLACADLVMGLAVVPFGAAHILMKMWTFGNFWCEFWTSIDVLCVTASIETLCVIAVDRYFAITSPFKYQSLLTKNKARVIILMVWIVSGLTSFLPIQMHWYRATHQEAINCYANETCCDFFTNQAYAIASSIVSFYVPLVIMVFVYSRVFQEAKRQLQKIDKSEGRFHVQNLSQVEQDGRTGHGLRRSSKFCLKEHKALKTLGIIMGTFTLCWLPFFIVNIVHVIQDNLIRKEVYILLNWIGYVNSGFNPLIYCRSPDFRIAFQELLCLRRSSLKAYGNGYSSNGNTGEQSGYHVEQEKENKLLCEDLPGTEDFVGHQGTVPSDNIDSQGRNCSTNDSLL

SMILES	AC50 [1] [µM]	AC50 [2] [µM]	AC50 (B2 bradykinin receptor) [µM]	AC50 (Cannabinoid receptor 1) [µM]	AC50 (Glucocorticoid receptor) [µM]	AC50 [3] [µM]	AC50 [4] [µM]	AC50 (Mu-type opioid receptor [5]) [µM]	AC50 [6] [µM]	AC50 [7] [µM]	AC50 (Histamine H1 receptor) [µM]	AC50 [8] [µM]	AC50 [9] [µM]	AC50 (Mu-type opioid receptor [10]) [µM]
Nc1cc(N2CCCCC2)nc(N)[n+]1[O-] [MINOXIDIL]	> 30	> 30	> 30	> 10	> 30	> 30	> 30	> 30	> 10	–	–	–	–	–
CCN(CC)C(C)C(=O)c1ccccc1 (stereo not drawn) [DIETHYLPROPION]	> 30	> 30	> 30	> 10	–	> 30	> 30	> 30	> 10	> 30	12	–	–	–
CC1NCCOC1c1ccccc1 (stereo not drawn) [PHENMETRAZINE]	> 30	> 30	> 30	> 10	–	> 30	25.6	> 30	> 10	> 30	> 10	> 30	> 30	–
CC(NC(C)(C)C)C(=O)c1cccc(Cl)c1 (stereo not drawn) [BUPROPION]	> 30	> 30	> 30	> 10	> 30	–	–	> 10	> 10	–	–	–	–	–
CC1Cc2ccccc2N1NC(=O)c1ccc(Cl)c(S(N)(=O)=O)c1 (stereo not drawn) [INDAPAMIDE]	> 30	> 30	> 30	> 10	–	> 10	> 30	> 30	> 10	–	–	–	–	–
Cc1nnc2n1-c1ccc(Cl)cc1C(c1ccccc1)=NC2 [ALPRAZOLAM]	> 30	> 30	> 30	3.35	> 30	> 30	> 10	> 30	> 10	–	–	–	–	–
Oc1cc(O)c2c(c1)O[C@H](c1ccc(O)c(O)c1)[C@@H](O)C2 [CIANIDANOL]	> 30	> 30	> 30	> 10	> 30	> 30	> 30	> 30	> 10	> 30	> 10	> 30	> 30	–
CCCCOC(=O)c1ccc(N)cc1 [BUTAMBEN]	–	> 30	> 30	–	> 30	26	> 30	–	> 30	–	–	–	–	> 30
CN1C2CCCC1CC(NC(=O)c1nn(C)c3ccccc13)C2 (stereo not drawn) [GRANISETRON]	> 30	> 30	> 30	> 10	–	> 10	> 10	> 10	> 10	–	–	–	–	–
CC(C)(N)Cc1ccccc1 [PHENTERMINE]	> 30	> 30	> 30	> 10	> 30	> 30	> 30	> 30	> 10	> 30	> 10	> 30	> 30	–
CCCCCCOC(=O)NC(=N)c1ccc(NCc2nc3cc(C(=O)N(CCC(=O)OCC)c4ccccn4)ccc3n2C)cc1 [DABIGATRAN ETEXILATE]	> 30	7.7	> 30	–	–	> 30	17	> 30	> 30	> 30	> 30	> 30	> 30	–
COc1cc(N)cn[n+]1-c1ccccc1 [AMEZINIUM METILSULFATE]	–	> 30	> 30	–	–	> 30	5.7	–	11	> 30	> 30	> 30	> 30	> 30
CNCCc1ccccn1 [BETAHISTINE]	–	> 30	> 30	–	> 30	> 30	> 30	–	> 30	–	–	–	–	> 30
Cc1ccc(-c2ncc(Cl)cc2-c2ccc(S(C)(=O)=O)cc2)cn1 [ETORICOXIB]	> 30	> 10	> 30	> 10	–	9	> 10	> 10	> 10	> 10	> 10	> 30	> 30	–
CC(C(=O)O)c1ccc(C(=O)c2ccccc2)s1 (stereo not drawn) [TIAPROFENIC ACID]	> 30	> 10	> 10	> 10	–	> 30	> 10	> 30	18	> 30	–	> 30	> 30	–
COc1ccc2c3c1O[C@H]1C(=O)CC[C@H]4[C@@H](C2)N(C)CC[C@]314 [HYDROCODONE]	> 30	> 30	> 30	–	–	9.5	> 10	–	> 10	> 10	> 10	> 30	> 30	–
C[C@@H](Cc1ccccc1)N(C)Cc1ccccc1 [BENZPHETAMINE]	–	> 30	> 10	> 10	> 10	> 30	9.9	> 30	> 10	> 30	> 10	> 10	22	–
COc1ccc(-n2nc(C(N)=O)c3c2C(=O)N(c2ccc(N4CCCCC4=O)cc2)CC3)cc1 [APIXABAN]	> 30	> 30	> 30	–	–	> 30	> 30	> 30	> 30	> 30	> 30	> 30	–	–
O=C1CN=C(c2ccccc2Cl)c2cc([N+](=O)[O-])ccc2N1 [CLONAZEPAM]	> 30	> 30	> 30	> 10	> 30	> 30	> 10	> 30	> 10	–	–	–	–	–
